From patent US8846670B2, “1,2,3,4-tetrahydro-pyrimido(1,2-a)pyrimidin-6-one derivatives, preparation thereof, and pharmaceutical use thereof” (priority 2009, dated 2014)

Legend:
Format in all cases: cell-based
[1] = test system: AKT protein phosphorylated on serine 473 (pAKT-S473) in PC3 human prostate carcinoma line; assay: Study of pAKT expression in PC3 human prostate carcinoma cells measured by western blotting (Test A); settings: PC-3, 1 to 2 hours incubation, approximate absolute IC50, mean of two experiments
Protocol: The inhibitory activity of the molecules on AKT phosphorylation is measured either by western blotting using the technique described below, or by the MSD Multi-spot Biomarker detection technique from Meso Scale Discovery also described below. […] Study of pAKT Expression in Pc3Human Prostate Carcinoma Cells Measured by Western Blotting (Test A): This test is based on measuring the expression of the AKT protein phosphorylated on […]. […] On day 2, the cells are incubated in the presence or absence of the test products for 1 to 2 hours at 37° C. in the presence of 5% CO2. The molecules, diluted in dimethyl sulphoxide (DMSO Sigma #D2650), are added from a 10-times concentrated stock solution, the final percentage of DMSO being 0.1%. […] After this incubation, the cells are lysed for the preparation of the proteins. […] The lysate is centrifuged for 10 min at 6000 rpm. 155 μl of supernatant are recovered. 150 μl are incubated for denaturation for 5 min at 95° C. in the presence of 4× NuPAGE LDS Sample Buffer diluted 4-fold (InVitrogen ref NP0007) and of 10× NuPAGE Sample Reducing Agent diluted 10-fold (InVitrogen ref NP0009). These samples are then frozen at -20° C. […] The gel is then transferred on to an Invitrolon PVDF membrane (Invitrogen #LC2007) permeabilised beforehand for a few seconds in ethanol (Ethanol Fischer Scientific #E/0600DF/15). The transfer is carried out in a Biorad tank at 30 volts overnight or at 60 volts for 3 hours, in the presence of 20× NUPAGE Transfer Buffer diluted 20-fold (InVitrogen ref NP0006). The membrane is then saturated in saturating solution composed of TBS (10× Tris Buffered Saline, Sigma #T5912, diluted 10-fold), 0.1% Tween 20 (Sigma #P5927) and 3% BSA (Bovine Serum Albumin Fraction V, Sigma #A4503) for 6 h after overnight transfer or else for 1 h after transfer for a period of 3 h. […] Two rinses for 5 min in washing solution composed of TBS and 0.1% Tween 20 are carried out before hybridisation of the secondary antibodies. The secondary antibodies are diluted to 1/10000th for the rabbit anti-Mouse IgG HRP antibody ([…] Promega) and to 1/10000th for the goat anti-Rabbit IgG HRP antibody ([…] Promega) in saturating solution, and then shaken for 1 h at ambient temperature. Two rinses for 30 min in washing solution are carried out and then a rinse for 5 min in H2O is carried out in order to eliminate the remaining Tween 20. […] The luminescence is read with the FujiFilm device (Ray Test). The FUJI device measures the total luminescence signal obtained (AU) for each band selected. It then subtracts the background noise (BG) proportional to the size of the band selected (Area), said background noise being calculated from a specific background noise band, with a view to obtaining the specific signal (AU-BG) for each band. The band obtained in the absence of product and in the presence of 0.1% DMSO is considered to be the 100% signal. The software calculates the % specific activity (Ratio) obtained for each band selected as a function of this 100% signal. The percentage inhibition is calculated for each concentration according to the formula (100%-Ratio). Two independent experiments make it possible to calculate the mean of the percentages of inhibition obtained at a given concentration for the products tested only at one concentration. […] Two independent experiments make it possible to calculate the mean of the IC50 values.

[2] = test system: translocation of the LC3 protein in Hela GFP-LC3 cells; assay: Study of the translocation of the LC3 protein in Hela human cells, measured by image analysis cytometry (Test C, autophagy); settings: Homo sapiens, HeLa, 2 h, Hela GFP-LC3 cells with LC3 granulations, EBSS + 10 μM hydroxychloroquine, absolute IC50
Protocol: The inhibitory activity of the molecules on autophagy is measured by the translocation of the LC3 protein from the cytoplasm to the autophagosomes. For this, Hela cells were transfected with a vector encoding the chimeric protein GFP-LC3. A Hela clone stably expressing the GFP-LC3 protein was selected.
Study of the Translocation of the LC3 Protein in Hela Human Cells, Measured by Image Analysis Cytometry (Test C):
On day 2, the cells are washed twice with EBSS (Sigma #E3024). The cells are then incubated in EBSS, 10 μM of hydroxychloroquine and test products for 2 h at 37° C. in the presence of 5% CO2. The molecules are diluted in dimethyl sulphoxide (DMSO Sigma #D2650), the final DMSO percentage being 0.1%.
After this incubation, the cells are fixed with 4% paraformaldehyde (Sigma #HT501128 4 L) for 10 min. […] The 96-well plates are then read with the iCyte image analysis cytometer (Compucyte).
Two independent experiments make it possible to calculate the mean of the IC50 values.

[3] = test system: P. falciparum (highly chloroquine-resistant strain Fcm29-Cameroon); assay: Antimalarial activity test (radioactive micromethod of Desjardins); settings: Plasmodium falciparum, Erythrocyte, infected human erythrocytes, 48 h, tritiated hypoxanthine incorporation
Protocol: Antimalarial Activity Test
The P. falciparum strains are cultured in solutions of RPM! […] For each assay, the parasites are incubated with selected concentrations of drugs for 48 h at 37° C. in a humid atmosphere and at 5% CO2. Artemisinin, artesunate and also chloroquine diphosphate are used as reference molecules. The first dilution of the drug is prepared at 1 mg/ml in dimethyl sulphoxide. The range of successive daughter solution dilutions is also prepared in dimethyl sulphoxide. […] These dilutions are then added to the parasites in culture in the microplates. […] The growth of the parasites is measured by incorporation of tritiated hypoxanthine (added 24 h after the beginning of the exposure to the drug) compared with the incorporation in the absence of drug.

[4] = test system: AKT protein phosphorylated on serine 473 (P-AKT-S473) in PC3 human prostate carcinoma line; assay: Study of pAKT expression in PC3 human prostate carcinoma cells measured by the MSD Multi-spot Biomarker Detection technique (Test B); settings: Homo sapiens, PC-3, P-AKT-S473 in PC3 cells, MSD sandwich immunoassay, 1 to 2 h incubation; absolute IC50, mean of 2 experiments
Protocol: The inhibitory activity of the molecules on AKT phosphorylation is measured either by western blotting using the technique described below, or by the MSD Multi-spot Biomarker detection technique from Meso Scale Discovery also described below.
Study of pAKT Expression in PC3Human Prostate Carcinoma Cells Measured by the MSD Multi-Spot Biomarker Detection Technique from Meso Scale Discovery (Test B):
The primary antibody specific for P-AKT-S473 (Kit #K151CAD) is coated onto an electrode in each well of the 96-well plates of the MSD kit: after the addition of a protein lysate to each well, the signal is visualised by adding a secondary detection antibody labelled with an electrochemiluminescent compound. The procedure followed is that described in the kit.
On day 2, the cells are incubated in the presence or absence of the test products for 1 to 2 h at 37° C. in the presence of 5% of CO2. The molecules, diluted in dimethyl sulphoxide (DMSO Sigma #D2650), are added from a 20-times concentrated stock solution, the final percentage of DMSO being 0.1%.
After this incubation, the cells are lysed for the preparation of the proteins. […] At this stage, the plates containing the lysates can be frozen at −20° C. or at −80° C.
The wells of the 96-well plates of the MSD kit are saturated for 1 h at ambient temperature with the blocking solution of the MSD kit. Four washes are carried out with 150 μl of Tris Wash Buffer of the MSD kit. The lysates previously prepared are transferred into the 96-well multi-spot plates of the MSD kit and incubated for 1 h at ambient temperature, with shaking. Four washes are carried out with 150 μl of Tris Wash Buffer of the MSD kit. 25 μl of the MSD sulfo-tag detection antibody solution are added to the wells and incubated for 1 h at ambient temperature, with shaking. Four washes are carried out with 150 μl of Tris Wash Buffer of the MSD kit. 150 μl of Read Buffer of the MSD kit are added to the wells and the plates are read immediately on the S12400 instrument from Meso Scale Discovery.
The instrument measures a signal for each well. Wells without cells and containing the lysis buffer serve to determine the background noise that will be subtracted from all the measurements (min). The wells containing cells in the absence of product and in the presence of 0.1% DMSO are considered to be the 100% signal (max). The percentage inhibition is calculated for each concentration of test product according to the following formula: (1−((test−min)/(max−min)))×100.
2 independent experiments make it possible to calculate the mean of the IC50 values.

Question: With `COc1ccc(C(C)N2c3nc(N4CCOCC4)cc(=O)n3CC[C@H]2C(F)(F)F)cc1` (mixture of isomers) [Example 9, (8S)-9-[(1R and 1S)-1-(4-methoxyphenyl)ethyl]-2-(morpholin-4-yl)-8-(trifluoromethyl)-6,7,8,9-tetrahydro-4H-pyrimido[1,2-a]pyrimidn-4-one] as the compound, how does the IC50 [1] read?
Answer: Its IC50 is 676 nM.

Question: `COc1ccc(CCN2c3nc(N4CCOCC4)cc(=O)n3CCC2C(F)(F)F)cc1` (racemic) [Example 2, (R,S)-9-[2-(4-methoxyphenyl)ethyl]-2-morpholin-4-yl-8-trifluoromethyl-6,7,8,9-tetrahydropyrimido[1,2-a]pyrimidin-4-one] was tested. Which IC50 [1] did it give?
Answer: The IC50 was 315 nM.

Question: What about the IC50 [2] of the same compound?
Answer: Its IC50 is 16 nM.

Question: For `C[C@@H](c1ccccc1)N1c2nc(N3CCOCC3)cc(=O)n2CC[C@H]1C(F)(F)F` (single isomer, unassigned) [Example 8, (8S)-2-(morpholin-4-yl)-9-[(1R or 1S)-1-phenylethyl]-8-(trifluoromethyl)-6,7,8,9-tetrahydro-4H-pyrimido[1,2-a]pyrimidin-4-one], which IC50 [1] is on record?
Answer: Its IC50 is 75 nM.

Question: And the IC50 [2]?
Answer: The IC50 was 462 nM.

Question: What does the source list for `C[C@@H](c1ccc(Br)cc1)N1c2nc(N3CCOCC3)cc(=O)n2CC[C@H]1C(F)(F)F` (single isomer, unassigned) [Example 10, (8S)-9-[R1R or 1S)-1-(4-bromophenyl)ethyl]-2-(morpholin-4-yl)-8-(trifluoromethyl)-6,7,8,9-tetrahydro-4H-pyrimido[1,2-a]pyrimidin-4-one]?
Answer: IC50 [1]: 357 nM; IC50 [2]: 249 nM

Question: With `C[C@H](c1cccc(F)c1)N1c2nc(N3CCOCC3)cc(=O)n2CC[C@H]1C(F)(F)F` (single isomer, unassigned) [Example 16, (8S)-9-[(1R or 1S)-1-(3-fluorophenyl)ethyl]-2-(morpholin-4-yl)-8-(trifluoromethyl)-6,7,8,9-tetrahydro-4H-pyrimido[1,2-a]pyrimidin-4-one] as the compound, how does the IC50 [1] read?
Answer: Its IC50 is 41 nM.

Question: What about the IC50 [2] of the same compound?
Answer: The IC50 was 187 nM.

Question: How did the IC50 [1] turn out when `COc1ccc(CCN2c3nc(N4CCOCC4)cc(=O)n3CC[C@H]2C(F)(F)F)cc1` [Example 1, (S)-9-[2-(4-methoxyphenyl)ethyl]-2-morpholin-4-yl-8-trifluoromethyl-6,7,8,9-tetrahydropyrimido[1,2-a]pyrimidin-4-one] was run?
Answer: Its IC50 is 15 nM.

Question: And the IC50 [2]?
Answer: Its IC50 is 11 nM.

Question: And the inhibition at 0.1 µM [3]?
Answer: Its inhibition at 0.1 µM is 79%.

Question: And the inhibition at 1 µM [3]?
Answer: The inhibition at 1 µM was 99%.

Question: For `O=c1cc(N2CCOCC2)nc2n1CC[C@@H](C(F)(F)F)N2CCc1ccccc1` [Example 3, (S)-2-morpholin-4-yl-9-phenethyl-8-trifluoromethyl-6,7,8,9-tetrahydropyrimido[1,2-a]pyrimidin-4-one], which IC50 [1] is on record?
Answer: Its IC50 is 15 nM.

Question: And the IC50 [2]?
Answer: Its IC50 is 20 nM.

Question: How did the IC50 [1] turn out when `O=c1cc(N2CCOCC2)nc2n1CC[C@@H](C(F)(F)F)N2Cc1ccccc1` [Example 4, (S)-9-benzyl-2-morpholin-4-yl-8-trifluoromethyl-6,7,8,9-tetrahydropyrimido[1,2-a]pyrimidin-4-one] was run?
Answer: Its IC50 is 265 nM.

Question: And the IC50 [2]?
Answer: Its IC50 is 569 nM.

Question: What about the inhibition at 0.1 µM [3] of the same compound?
Answer: Its inhibition at 0.1 µM is 19%.

Question: And the inhibition at 1 µM [3]?
Answer: Its inhibition at 1 µM is 97%.

Question: Which results are given for `O=c1cc(N2CCOCC2)nc2n1CC[C@@H](C(F)(F)F)N2c1ccccc1` [Example 12, (8S)-2-(morpholin-4-yl)-9-phenyl-8-(trifluoromethyl)-6,7,8,9-tetrahydro-4H-pyrimido[1,2-a]pyrimidin-4-one]?
Answer: IC50 [1]: 6600 nM; IC50 [2]: 441 nM; inhibition at 1 µM [3]: 59%

Question: How did the IC50 [1] turn out when `O=c1cc(N2CCOCC2)nc2n1CC[C@@H](C(F)(F)F)N2c1ccccc1F` [Example 15, (8S)-9-(2-fluorophenyl)-2-(morpholin-4-yl)-8-(trifluoromethyl)-6,7,8,9-tetrahydro-4H-pyrimido[1,2-a]pyrimidin-4-one] was run?
Answer: Its IC50 is 2720 nM.

Question: What about the IC50 [4] of the same compound?
Answer: Its IC50 is 7 nM.

Question: And the IC50 [2]?
Answer: The IC50 was greater than 1000 nM.

Question: With `O=c1cc(N2CCOCC2)nc2n1CC[C@@H](C(F)(F)F)N2Cc1ccc(F)cc1` [Example 17, (8S)-9-(4-fluorobenzyl)-2-(morpholin-4-yl)-8-(trifluoromethyl)-6,7,8,9-tetrahydro-4H-pyrimido[1,2-a]pyrimidin-4-one] as the compound, how does the IC50 [1] read?
Answer: The IC50 was 350 nM.

Question: And the IC50 [2]?
Answer: Its IC50 is 119 nM.

Question: With `O=C(c1ccccc1)N1c2nc(N3CCOCC3)cc(=O)n2CC[C@H]1C(F)(F)F` [Example 18, (S)-9-Benzoyl-2-morpholin-4-yl-8-trifluoromethyl-6,7,8,9-tetrahydropyrimido[1,2-a]pyrimidin-4-one] as the compound, how does the IC50 [1] read?
Answer: Its IC50 is 335 nM.

Question: What about the IC50 [2] of the same compound?
Answer: The IC50 was greater than 1000 nM.

Question: For `O=c1cc(N2CCOCC2)nc2n1CC[C@@H](C(F)(F)F)N2c1ccncc1` [Example 20, (S)-2-morpholin-4-yl-9-pyridin-4-yl-8-trifluoromethyl-6,7,8,9-tetrahydropyrimido[1,2-a]pyrimidin-4-one], which IC50 [1] is on record?
Answer: Its IC50 is 60 nM.

Question: And the IC50 [2]?
Answer: Its IC50 is greater than 1000 nM.
